The conditions of data set [1]: rat, cited from earlier work.
The subject of data set [2] is efflux pump activity in P. aeruginosa (PA-017, blaNDM). Put plainly: EtBr accumulation, inhibition of efflux pump activity. In kind it is cell-based. The settings on record: EtBr fluorescence compared with positive control CCCP. The procedure: The NDM-producing P. aeruginosa clinical isolate (PA-017, blaNDM) (5 mL, LB medium) was grown to reach the mid-log phase. After centrifugation at 3500 rpm for 15 min, the bacterial pellet was washed twice with PBS and resuspended to OD600 = 0.3 in PBS. To each well of a flat-bottomed black 96-well plate, 182 µL of the bacterial suspension, 4 µL of glucose [final concentration = 0.4% (w/v)], 4 µL of the synthesized compounds or positive control CCCP, and 10 µL of EtBr (final concentration = 1 µg/mL) were added. The plate was incubated at 37 °C, and fluorescence emission from EtBr (λex 480 nm/λem 630 nm) was recorded every 2 min (for 60 min) using a Cytation 5 imaging multi-mode reader (BioTek Instruments, Inc., Winooski, VT, USA).

For another data set, the target named is AmpC. Put plainly: β-lactamase inhibition assay (nitrocefin). In kind it is biochemical. The settings on record: nitrocefin substrate; read-out: BLi, IC50 AmpC. The protocol: (§1) Recombinant AmpC, OXA-48 (residues 23–265) and VIM-2 (residues 27–266) were prepared from Escherichia coli based on previously established protocols. KPC-2 and NDM-1 are commercially available from LifeSpan Biosciences, Inc., Seattle, WA, USA (LS-G26598) and RayBiotech, Inc., Peachtree Corners, GA, USA (230-00554), respectively. For β-lactamase inhibition assay, in a 96-well plate, 70–0.1 μM (in PBS) of the synthesized compounds (1~14) (100 μL) were mixed with diluted β-lactamase stock (2% DMSO in 200 μL). In a separate 96-well plate, a substrate of AmpC, KPC-2, OXA-48, and VIM-2 (nitrocefin) and NDM-1 (imipenem) were added into each well (final concentrations of 70 μM for nitrocefin and 100 μM for imipenem). After incubation at 37 °C for 20 min, the mixture of the synthesized compounds (1~14) and β-lactamase in one plate was added to the substrate in the other plate. Enzymatic hydrolysis of the substrate was then monitored by a Cytation 5 imaging multimode reader (BioTek Instruments Inc., Winooski, VT, USA) at 486 nm and 300 nm for nitrocefin and imipenem, respectively, for 15 min. The rates of hydrolysis in the presence of the inhibitors were determined when the reaction rate plateaued. Comparison of the enzymatic hydrolysis rates in the presence and the absence of inhibitors (100%) provided the percentage of enzyme inhibition at each concentration of the synthesized compounds. The IC50 values were obtained after non-linear regression (sigmoidal dose-responses) by GraphPad Prism 5 (GraphPad Software, Boston, MA, USA).

Data set [3] relates to NDM-1-Producing P. aeruginosa (PA-017, blaNDM). Put plainly: MIC / checkerboard with ATM. The settings on record: PA-017; for MIC: Pseudomonas aeruginosa, compound alone, read-out: MIC, Cmpd. The format is cell-based.
The target in the next data set is T1, OXA-48 (Klebsiella pneumoniae, UniProt Q6XEC0).
T1 construct: OXA-48 (residues 23–265); made in house; host or cells: Escherichia coli
The data set can be described thus: β-lactamase inhibition assay (nitrocefin). To be noted: nitrocefin substrate; read-out: BLi, IC50 OXA-48. The format is biochemical. The procedure: as §1

For the next data set, the target named is T2, KPC-2 (Klebsiella pneumoniae, UniProt Q9F663).
T2 construct: purchased LifeSpan Biosciences, Inc. LS-G26598
The data set can be described thus: β-lactamase inhibition assay (nitrocefin). The settings on record: nitrocefin substrate; read-out: BLi, IC50 KPC-2. The format is biochemical. The protocol:
as §1

In the next data set the target is T3, VIM-2 (Escherichia coli, UniProt Q5U7L7).
T3 construct: VIM-2 (residues 27–266); made in house; host or cells: Escherichia coli
The data set can be described thus: β-lactamase inhibition assay (nitrocefin). The format is biochemical. To be noted: nitrocefin substrate; read-out: BLi, IC50 VIM-2. The protocol: as §1

The next data set addresses T4, NDM-1 (Klebsiella pneumoniae, UniProt C7C422).
T4 construct: purchased RayBiotech, Inc. 230-00554
The data set can be described thus: β-lactamase inhibition assay (imipenem). In kind it is biochemical. The settings on record: imipenem substrate; read-out: BLi, IC50 NDM-1. The procedure:
as §1

T4 sequence (C7C422 29-270, looked up, species assumed): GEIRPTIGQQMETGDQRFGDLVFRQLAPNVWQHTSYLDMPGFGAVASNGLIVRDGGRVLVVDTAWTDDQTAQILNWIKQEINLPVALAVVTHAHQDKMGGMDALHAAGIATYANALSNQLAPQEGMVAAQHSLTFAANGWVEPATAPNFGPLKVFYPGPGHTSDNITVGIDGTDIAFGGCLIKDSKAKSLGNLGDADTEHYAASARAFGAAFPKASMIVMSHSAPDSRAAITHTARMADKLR
T2 sequence (Q9F663 25-293, looked up, species assumed): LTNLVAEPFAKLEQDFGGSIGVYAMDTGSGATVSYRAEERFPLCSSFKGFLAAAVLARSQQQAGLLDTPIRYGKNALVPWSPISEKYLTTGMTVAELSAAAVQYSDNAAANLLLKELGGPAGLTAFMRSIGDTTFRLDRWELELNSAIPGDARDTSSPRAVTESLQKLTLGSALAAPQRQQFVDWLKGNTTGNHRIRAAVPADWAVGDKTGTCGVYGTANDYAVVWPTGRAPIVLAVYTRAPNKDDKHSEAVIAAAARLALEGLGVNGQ
T1 sequence (Q6XEC0 23-265 limits assumed): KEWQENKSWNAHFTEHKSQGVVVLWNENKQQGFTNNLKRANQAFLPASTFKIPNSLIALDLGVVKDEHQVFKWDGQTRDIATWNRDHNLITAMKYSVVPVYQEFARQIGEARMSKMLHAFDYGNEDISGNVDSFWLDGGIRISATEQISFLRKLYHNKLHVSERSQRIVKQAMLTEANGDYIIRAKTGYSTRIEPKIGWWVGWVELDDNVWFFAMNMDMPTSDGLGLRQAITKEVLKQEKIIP

With `CC(C)(C)CCOc1c(-c2ccc(F)c(F)c2)oc2cc(O)cc(O)c2c1=O` [Compound 1], in data set [1], the “F (mean oral bioavailability)” value is 0.27%. For the same compound, in data set [1] (oral administration), the AUClast was 20 ng·h/mL and the peak concentration (Cmax) (in general, the peak of the concentration-time curve) was 10 ng/mL. Further, in data set [2], the “EPi (inhibition of efflux pump activity)” value was “↑↑↑ ^e”. Also, the IC50 (in general, the point on the concentration scale where inhibition reaches its midpoint) at AmpC stood at 18.9 ± 1.8 µM. For the same compound, in data set [3], the “FD (fold decrease in the MIC of ATM upon combination with the compound)” value came to 2 and the MIC (in general, the lowest concentration that inhibits growth of the organism) was above 256 µg/mL.
Regarding `O=c1c(OCCC2CCCC2)c(-c2ccc(F)c(F)c2)oc2cc(O)cc(O)c12` [Compound 2], in data set [2], the “EPi (inhibition of efflux pump activity)” value is on record as “↑↑↑ ^e”. Also, on AmpC, the IC50 was determined as 21 ± 2.1 µM. Further, in data set [3], the “FD (fold decrease in the MIC of ATM upon combination with the compound)” value is given as 2 and the MIC was above 256 µg/mL.
On the same counts, the results for `O=c1c(OCCC2CCCCC2)c(-c2ccc(F)c(F)c2)oc2cc(O)cc(O)c12` [Compound 3] are “↑↑↑ ^e”, 15.3 ± 1.5 µM, 4 and above 256 µg/mL.
`O=C(O)CC(Oc1cc(O)c2c(=O)c(OCCC3CCCCC3)c(-c3ccc(F)c(F)c3)oc2c1)C(=O)O` (centres unmarked) [Compound 4, 2-((3-(2-Cyclohexylethoxy)-2-(3,4-difluorophenyl)-5-hydroxy-4-oxo-4H-chromen-7-yl)oxy)succinic Acid]: the “EPi (inhibition of efflux pump activity)” value in data set [2] is “- ^f”. For the same compound, the IC50 at AmpC is above 50 µM; at OXA-48, above 100 µM; at KPC-2, above 50 µM; at VIM-2, above 100 µM; at NDM-1 it was above 50 µM. The “FD (fold decrease in the MIC of ATM upon combination with the compound)” value in data set [3] is 1. The MIC in data set [3] was above 256 µg/mL.
As to `O=C(O)COc1cc(O)c2c(=O)c(OCCC3CCCC3)c(-c3ccc(F)c(F)c3)oc2c1` [Compound 6, 2-((3-(2-Cyclopentylethoxy)-2-(3,4-difluorophenyl)-5-hydroxy-4-oxo-4H-chromen-7-yl)oxy)acetic Acid], the “EPi (inhibition of efflux pump activity)” value in data set [2] is reported as “↑ ^g”. For the same compound, the IC50 at AmpC was above 50 µM; at OXA-48 it was above 100 µM; on KPC-2 it was above 50 µM; on VIM-2 it was 37.3 ± 0.6 µM; on NDM-1, 16.1 ± 1.1 µM. Moreover, in data set [3], the “FD (fold decrease in the MIC of ATM upon combination with the compound)” value came out at 4. In addition, the MIC in data set [3] is above 256 µg/mL.
As for `O=C(O)COc1cc(O)c2c(=O)c(OCCC3CCCCC3)c(-c3ccc(F)c(F)c3)oc2c1` [Compound 7, 2-((3-(2-Cyclohexylethoxy)-2-(3,4-difluorophenyl)-5-hydroxy-4-oxo-4H-chromen-7-yl)oxy)acetic Acid], in data set [2], the “EPi (inhibition of efflux pump activity)” value is “↑ ^g”. Further, the IC50 was above 50 µM on AmpC; above 100 µM on OXA-48; above 50 µM at KPC-2; 21 ± 1.3 µM on VIM-2; 14.7 ± 1.6 µM on NDM-1. Moreover, the “FD (fold decrease in the MIC of ATM upon combination with the compound)” value in data set [3] is listed as 4. Moreover, the MIC in data set [3] was above 256 µg/mL.
On to `C[N+](C)(CCNC(=O)COc1cc(O)c2c(=O)c(OCCC3CCCCC3)c(-c3ccc(F)c(F)c3)oc2c1)CC(=O)[O-]` [Compound 8, 2-((2-(2-((3-(2-Cyclohexylethoxy)-2-(3,4-difluorophenyl)-5-hydroxy-4-oxo-4H-chromen-7-yl)oxy)acetamido)ethyl)dimethylammonio)acetate], for which, in data set [2], the “EPi (inhibition of efflux pump activity)” value is “- ^f”. The IC50 on AmpC was above 50 µM; at OXA-48 it was above 100 µM; at KPC-2, above 50 µM; at VIM-2, above 100 µM; at NDM-1, above 50 µM. In addition, the “FD (fold decrease in the MIC of ATM upon combination with the compound)” value in data set [3] is reported as 2. Also, in data set [3], the MIC was above 256 µg/mL.
For `CC(C)(C)CCOc1c(-c2ccc(F)c(F)c2)oc2cc(OCC(=O)Nc3ccccc3)cc(O)c2c1=O` [Compound 9, 2-((2-(3,4-Difluorophenyl)-3-(3,3-dimethylbutoxy)-5-hydroxy-4-oxo-4H-chromen-7-yl)oxy)-N-phenylacetamide], the “EPi (inhibition of efflux pump activity)” value in data set [2] was “- ^f”. The IC50 at AmpC is above 50 µM; at OXA-48, 6.4 ± 0.6 µM; on KPC-2 it was 26.2 ± 1.5 µM; on VIM-2 it was 12.6 ± 1.2 µM; at NDM-1 it was 7.6 ± 0.3 µM. Further, the “FD (fold decrease in the MIC of ATM upon combination with the compound)” value in data set [3] worked out at 1. Besides, in data set [3], the MIC was above 256 µg/mL.
As to `CC(C)(C)CCOc1c(-c2ccc(F)c(F)c2)oc2cc(OCC(=O)N3CCCCC3)cc(O)c2c1=O` [Compound 10, 2-(3,4-Difluorophenyl)-3-(3,3-dimethylbutoxy)-5-hydroxy-7-(2-oxo-2-(piperidin-1-yl)ethoxy)-4H-chromen-4-one], the “EPi (inhibition of efflux pump activity)” value in data set [2] was “- ^f”. The IC50 on AmpC was above 50 µM; at OXA-48, above 50 µM; on KPC-2, above 50 µM; at VIM-2, above 100 µM; at NDM-1 it was above 50 µM. In data set [3], the “FD (fold decrease in the MIC of ATM upon combination with the compound)” value is given as 1. Besides, the minimal inhibitory concentration (MIC) in data set [3] is above 256 µg/mL.
As for `CC(C)(C)CCOc1c(-c2ccc(F)c(F)c2)oc2cc(OCC(=O)N[C@@H](CCCCN)C(=O)O)cc(O)c2c1=O.Cl` [Compound 11, (S)-6-Amino-2-(2-((2-(3,4-difluorophenyl)-3-(3,3-dimethylbutoxy)-5-hydroxy-4-oxo-4H-chromen-7-yl)oxy)acetamido)hexanoic Acid Hydrochloride], the “EPi (inhibition of efflux pump activity)” value in data set [2] was “- ^f”. For the same compound, the IC50 on AmpC is above 50 µM; on OXA-48 it was above 100 µM; on KPC-2 it was above 50 µM; at VIM-2, above 100 µM; on NDM-1, above 50 µM. In addition, the “FD (fold decrease in the MIC of ATM upon combination with the compound)” value in data set [3] is 1. For the same compound, the minimum inhibitory concentration (MIC) in data set [3] is above 256 µg/mL.
On to `CN1CCCC1CCOc1cc(O)c2c(=O)c(OCCC(C)(C)C)c(-c3ccc(F)c(F)c3)oc2c1` (centres unmarked) [Compound 12, 2-(3,4-Difluorophenyl)-3-(3,3-dimethylbutoxy)-5-hydroxy-7-(2-(1-methylpyrrolidin-2-yl)ethoxy)-4H-chromen-4-one], for which, in data set [2], the “EPi (inhibition of efflux pump activity)” value was “- ^f”. Further, the IC50 is above 50 µM at AmpC; above 100 µM at OXA-48; above 50 µM at KPC-2; above 100 µM on VIM-2; above 50 µM on NDM-1. Further, the “FD (fold decrease in the MIC of ATM upon combination with the compound)” value in data set [3] is 2. Moreover, in data set [3], the MIC was above 256 µg/mL.
Take `CN1CCN(CCOc2cc(O)c3c(=O)c(OCCC(C)(C)C)c(-c4ccc(F)c(F)c4)oc3c2)CC1` [Compound 13, 2-(3,4-Difluorophenyl)-3-(3,3-dimethylbutoxy)-5-hydroxy-7-(2-(4-methylpiperazin-1-yl)ethoxy)-4H-chromen-4-one]: the “EPi (inhibition of efflux pump activity)” value in data set [2] is recorded as “- ^f”. For the same compound, the IC50 is above 50 µM at AmpC; above 100 µM on OXA-48; above 50 µM on KPC-2; above 100 µM at VIM-2; above 50 µM on NDM-1. Besides, the “FD (fold decrease in the MIC of ATM upon combination with the compound)” value in data set [3] was 2. The MIC in data set [3] is above 256 µg/mL.
As to `CN1CCN(CCOc2cc(O)c3c(=O)c(OCCC4CCCC4)c(-c4ccc(F)c(F)c4)oc3c2)CC1` [Compound 14, 3-(2-Cyclopentylethoxy)-2-(3,4-difluorophenyl)-5-hydroxy-7-(2-(4-methylpiperazin-1-yl)ethoxy)-4H-chromen-4-one], the “EPi (inhibition of efflux pump activity)” value in data set [2] is recorded as “- ^f”. Moreover, the IC50 is above 50 µM at AmpC; above 100 µM at OXA-48; above 50 µM at KPC-2; above 100 µM at VIM-2; above 50 µM on NDM-1. The “FD (fold decrease in the MIC of ATM upon combination with the compound)” value in data set [3] was determined as 2. Further, in data set [3], the MIC is above 256 µg/mL.
